Laboratory results from paper PMC11284088, “Synthesis and biochemical characterization of naphthoquinone derivatives targeting bacterial histidine kinases” (The Journal of Antibiotics, 2024).
Read-outs that look alike come from different tables or passages of the source.

How the values were obtained:
EnvZ = target: T1, EnvZ (Escherichia coli, UniProt P0AEJ4); test: Inhibition of EnvZ autophosphorylation; assay type: biochemical, Escherichia coli K12; settings: EnvZ; 1 µM HK, 40 µM ATP, 30 min at 25 °C; read-out: IC50
T1 construct: pETEcEnvZ(223-450); His6 (C); made in house; host or cells: E. coli BL21(DE3)
T1 sequence (P0AEJ4 223-450): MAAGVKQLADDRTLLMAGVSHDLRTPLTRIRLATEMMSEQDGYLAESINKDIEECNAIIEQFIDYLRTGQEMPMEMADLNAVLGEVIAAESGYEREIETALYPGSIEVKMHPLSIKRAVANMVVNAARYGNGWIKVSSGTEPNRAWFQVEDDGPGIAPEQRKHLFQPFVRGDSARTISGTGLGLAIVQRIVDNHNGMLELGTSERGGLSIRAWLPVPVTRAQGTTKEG
Experimental: (§1) Autophosphorylation of WalK was conducted at 0.5 or 1 µM in a reaction mixture comprising 50 mM Tris-HCl (pH 8.5), 100 mM KCl, 5 mM MgCl2, 100 mM NH4Cl, 5% DMSO, and 40 µM ATP. The total reaction volume was 40 µl, and the incubation lasted for 30 min at 25 °C. To terminate the reaction, 40 µl of 2 × SDS-PAGE sample buffer was added, followed by a 10-min incubation at 37 °C. Subsequently, SDS-PAGE (10% acrylamide) was performed, and the samples were subjected to Western blotting using a PVDF membrane (Bio-Rad 1620177). The primary antibody used was anti-N3-phosphohistidine antibody (clone SC56-2) (EDM Millipore Corp), and the secondary antibody was goat anti-rabbit IgG-HRP (Abcam). A 2% bovine serum albumin (Sigma-Aldrich) solution served as the blocking reagent. Signals originating from phosphorylated HKs were detected using the HRP substrate (Immobilon Western Chemiluminescent HRP substrate, Millipore) and the Multi Imager II Multi Box (Bio Tools). Signal intensities were quantified with Image Analysis Software CS Analyzer 4 (ATTO). IC50 values (50% inhibitory concentrations) were determined using Prism 7 software (GraphPad).
(§2) In the assessment of naphthoquinone derivatives, the initial screening for inhibitory activity against WalK autophosphorylation was conducted at 50 or 100 µg ml^−1. Compounds displaying inhibitory activity were further examined to ascertain their IC50 values against WalK. For the chosen compounds, inhibition against EvgS, EnvZ, PhoQ, and CpxA HKs was also assessed. These reactions involved the use of 1 µM HK, 40 µM ATP, and a 30 min incubation at 25 °C.

PhoQ = target: T2, PhoQ (Escherichia coli, UniProt P23837); test: Inhibition of PhoQ autophosphorylation; assay type: biochemical, Escherichia coli K12; settings: PhoQ; 1 µM HK, 40 µM ATP, buffer pH 7.5; read-out: IC50
T2 construct: cytoplasmic regions of PhoQ (261-486) and CpxA (188-457); His6 (C); made in house; host or cells: E. coli BL21(DE3)
T2 sequence (P23837 261-486): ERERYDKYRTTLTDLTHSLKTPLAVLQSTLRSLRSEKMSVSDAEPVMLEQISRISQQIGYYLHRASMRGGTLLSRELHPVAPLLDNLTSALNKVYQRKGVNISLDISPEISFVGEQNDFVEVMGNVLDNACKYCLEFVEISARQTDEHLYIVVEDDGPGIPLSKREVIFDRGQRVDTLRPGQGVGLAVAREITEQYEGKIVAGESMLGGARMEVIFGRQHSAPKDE
Experimental: as §1, §2

B. subtilis 168 strain = test: MIC, standard microtiter broth dilution; assay type: cell-based, Bacillus subtilis; design: key to MIC: MIC + antibacterial activity against Bacillus subtilis 168
Experimental: The minimum inhibitory concentrations (MICs) were determined using the standard microtiter broth dilution method, as recommended by the guidelines of the Clinical Laboratory Standards Institute.

WalK = target: T3, WalK (Bacillus subtilis, UniProt Q45614); test: Inhibition of WalK autophosphorylation; assay type: biochemical; design: key to WalK: WalK + inhibitory effect against WalK; settings: for IC50: against WalK from B. subtilis, autophosphorylation, N.I. = no inhibition, read-out: IC50; for inhibitory activity against WalK: in words; for WalK: summary class
T3 construct: His6 (N); made in house; host or cells: E. coli BL21(DE3)
T3 sequence (Q45614 207-611): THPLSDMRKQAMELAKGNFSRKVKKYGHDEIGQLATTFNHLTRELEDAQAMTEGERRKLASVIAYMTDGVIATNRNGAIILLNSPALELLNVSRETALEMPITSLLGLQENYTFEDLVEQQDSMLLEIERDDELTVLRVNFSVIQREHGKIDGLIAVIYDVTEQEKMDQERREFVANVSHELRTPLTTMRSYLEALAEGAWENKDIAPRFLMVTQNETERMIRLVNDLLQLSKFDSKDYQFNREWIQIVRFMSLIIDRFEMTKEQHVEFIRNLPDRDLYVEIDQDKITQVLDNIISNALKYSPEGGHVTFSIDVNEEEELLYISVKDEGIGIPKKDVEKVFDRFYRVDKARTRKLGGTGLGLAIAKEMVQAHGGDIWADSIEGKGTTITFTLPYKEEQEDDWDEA
Experimental: as §1, §2

EvgS (559–1197) D1009A = target: T4, EvgS (559–1197) D1009A (Escherichia coli, UniProt P30855, D1009A); test: Inhibition of EvgS autophosphorylation; assay type: biochemical, Escherichia coli K12; settings: EvgS (559–1197) D1009A; 1 µM HK, 40 µM ATP, 30 min at 25 °C; read-out: IC50
T4 construct: EvgS (559–1197) D1009A; His6 (C); made in house; host or cells: E. coli BL21(DE3)
T4 sequence (P30855 559-1197 D1009A): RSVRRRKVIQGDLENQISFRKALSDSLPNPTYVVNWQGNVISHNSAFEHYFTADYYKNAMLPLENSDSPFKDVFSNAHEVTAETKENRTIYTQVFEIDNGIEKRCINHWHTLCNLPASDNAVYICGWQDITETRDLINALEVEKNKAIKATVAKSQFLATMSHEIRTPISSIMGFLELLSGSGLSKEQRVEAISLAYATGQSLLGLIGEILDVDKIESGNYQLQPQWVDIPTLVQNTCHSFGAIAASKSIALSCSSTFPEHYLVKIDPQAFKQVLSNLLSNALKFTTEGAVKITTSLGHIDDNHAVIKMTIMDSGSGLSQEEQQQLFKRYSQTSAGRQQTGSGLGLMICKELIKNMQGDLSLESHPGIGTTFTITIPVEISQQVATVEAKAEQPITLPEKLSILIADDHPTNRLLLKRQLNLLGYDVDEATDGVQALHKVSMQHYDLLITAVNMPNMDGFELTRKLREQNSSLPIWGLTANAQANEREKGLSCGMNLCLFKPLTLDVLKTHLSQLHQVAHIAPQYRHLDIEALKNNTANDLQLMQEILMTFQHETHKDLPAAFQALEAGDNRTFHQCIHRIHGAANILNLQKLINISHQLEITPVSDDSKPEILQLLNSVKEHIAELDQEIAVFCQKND
Experimental: as §1, §2

[1] = B. subtilis 168 strain grown in LB broth at 37 °C for 18 h
[2] = summary class, Bacillus subtilis 168

Q: `O=C1C(Cl)=C(Nc2ccc(Cl)c(O)c2)C(=O)c2c(O)ccc(O)c21` [2h, 2-chloro-3-((4-chloro-3-hydroxyphenyl)amino)-5,8-dihydroxynaphthalene-1,4-dione] was tested. Which IC50 (EnvZ) did it give?
A: 47.2 µM

Q: And the IC50 (PhoQ)?
A: 42.3 µM

Q: What about the MIC (B. subtilis 168 strain; [1]) of the same molecule?
A: 8 mg/L

Q: What about the MIC (B. subtilis 168 strain; B. subtilis 168 strain grown in LB broth at 37 °C for 18 h, listed as C00015) of the same molecule?
A: 8 mg/L

Q: What about the MIC (B. subtilis 168 strain; [2]) of the same molecule?
A: +

Q: What about the IC50 (WalK; listed as C00015) of the same molecule?
A: 12.6 µM

Q: And the “inhibitory activity against WalK” value (WalK)?
A: comparable to waldiomycin

Q: What about the WalK (WalK) of the same molecule?
A: +

Q: What about the IC50 (EvgS (559–1197) D1009A) of the same molecule?
A: 25.8 µM

Q: `Cc1noc2c1C(=O)c1c(O)ccc(O)c1C2=O` [3b, 5,8-dihydroxy-3-methylnaphtho[2,3-d]isoxazole-4,9-dione] was tested. Which IC50 (EnvZ) did it give?
A: 77.3 µM

Q: What about the IC50 (PhoQ) of the same molecule?
A: 96.3 µM

Q: What about the MIC (B. subtilis 168 strain; [1]) of the same molecule?
A: 0.5 mg/L

Q: What about the “antibacterial (antimicrobial) activity against B. subtilis” value (B. subtilis 168 strain; in words) of the same molecule?
A: equal to waldiomycin or even stronger

Q: And the MIC (B. subtilis 168 strain; [2])?
A: +

Q: What about the IC50 (WalK) of the same molecule?
A: 186 µM

Q: And the WalK (WalK)?
A: +

Q: What about the IC50 (EvgS (559–1197) D1009A) of the same molecule?
A: 109 µM

Q: Which results are given for `CC(C)(C)OC(=O)Nc1cccc(NC2=C(Cl)C(=O)c3c(O)ccc(O)c3C2=O)c1` [2l, tert-butyl (3-((3-chloro-5,8-dihydroxy-1,4-dioxo-1,4-dihydronaphthalen-2-yl)amino)phenyl)carbamate]?
A: IC50 (EnvZ): 26.8 µM; IC50 (PhoQ): 133 µM; MIC (B. subtilis 168 strain; [1]): 8 mg/L; MIC (B. subtilis 168 strain; [2]): +; IC50 (WalK): 13 µM; inhibitory activity against WalK (WalK): comparable to waldiomycin; WalK (WalK): +; IC50 (EvgS (559–1197) D1009A): 50 µM
